ChEMBL document CHEMBL1201862, “PubChem BioAssay data set” (2004)
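Dose response: 5 concentrations. Exposure: 48 h. Format: 96-well plates. Endpoint: linear interpolation; highest concentration if not reached. Abbreviation: GI50, concentration required for 50% inhibition of growth.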 The source made the active and inactive calls. No stated cut-off is given here; in the data, active = GI50 up to about 1.1 µM and inactive = higher.

What was measured:
Assay in all cases: inhibition of tumour cell growth, NCI panel, 48 h
IGROV-1 = system: IGROV-1
SK-MEL-2 = system: SK-MEL-2
K562 = system: K562
OVCAR-5 = system: OVCAR-5
TK-10 = system: TK-10
SF-539 = system: SF-539
UACC-62 = system: UACC-62
RPMI-8226 = system: RPMI-8226
NCI-H522 = system: NCI-H522
SK-MEL-5 = system: SK-MEL-5
SR = system: SR
HL-60 = system: HL-60
SK-OV-3 = system: SK-OV-3
PC-3 = system: PC-3
MDA-MB-435 = system: MDA-MB-435
SF-295 = system: SF-295
HOP-62 = system: HOP-62
MOLT-4 = system: MOLT-4
SNB-75 = system: SNB-75
OVCAR-3 = system: OVCAR-3

Measured: GI50

NS(=O)(=O)c1ccc(NC(=O)c2cccc3cc4ccccc4nc23)cc1
inactive: IGROV-1 > 78.2 µM | SK-MEL-2 > 100 µM | K562 30.1 µM | OVCAR-5 > 96.2 µM | TK-10 28.2 µM | SF-539 13.8 µM | UACC-62 66.5 µM | RPMI-8226 8.32 µM | NCI-H522 17.1 µM | SK-MEL-5 17.3 µM | SR 4.58 µM | HL-60 25.9 µM | SK-OV-3 > 88.7 µM | PC-3 37.3 µM | MDA-MB-435 34.3 µM | SF-295 16.3 µM | HOP-62 > 58.6 µM | MOLT-4 2.7 µM | SNB-75 > 37.4 µM | OVCAR-3 46.6 µM

Nc1nccc(-c2c[nH]c3cc(Br)ccc23)n1 [MERIDIANIN D]
inactive: IGROV-1 23.7 µM | SK-MEL-2 20 µM | K562 33.5 µM | OVCAR-5 17.5 µM | TK-10 22.3 µM | SF-539 32.6 µM | UACC-62 22 µM | RPMI-8226 22.6 µM | NCI-H522 17.7 µM | SK-MEL-5 18.9 µM | SR 17.3 µM | HL-60 29.2 µM | SK-OV-3 29.1 µM | PC-3 30.1 µM | MDA-MB-435 26.5 µM | SF-295 35.3 µM | HOP-62 30 µM | MOLT-4 24.7 µM | SNB-75 20.5 µM | OVCAR-3 28.8 µM

COC(=O)C(=O)C(C(=O)C(=O)Nc1nc2ccc(C)cc2s1)c1nc2ccc([N+](=O)[O-])cc2nc1O (stereo unspecified)
inactive: IGROV-1 47.9 µM | SK-MEL-2 > 100 µM | K562 > 100 µM | OVCAR-5 > 100 µM | TK-10 > 100 µM | SF-539 > 100 µM | UACC-62 > 100 µM | RPMI-8226 > 100 µM | NCI-H522 > 100 µM | SK-MEL-5 > 100 µM | SR > 100 µM | HL-60 > 100 µM | SK-OV-3 > 100 µM | PC-3 > 100 µM | MDA-MB-435 > 100 µM | SF-295 > 100 µM | HOP-62 > 100 µM | SNB-75 > 100 µM | OVCAR-3 > 100 µM

N#C/C(=C\c1ccc(Cl)cc1)c1nc(-c2cc3ccccc3oc2=O)cs1
inactive: IGROV-1 > 100 µM | SK-MEL-2 > 100 µM | K562 > 100 µM | OVCAR-5 > 100 µM | TK-10 26.9 µM | SF-539 39.8 µM | UACC-62 28.9 µM | RPMI-8226 > 100 µM | NCI-H522 15.6 µM | SK-MEL-5 90.4 µM | SR > 100 µM | HL-60 > 100 µM | SK-OV-3 84.5 µM | PC-3 > 100 µM | MDA-MB-435 > 100 µM | SF-295 44.4 µM | HOP-62 24.8 µM | MOLT-4 > 100 µM | SNB-75 26.9 µM

CC(C)(C)c1ccc(O)c(C(c2ccc([N+](=O)[O-])cc2)c2cc(C(C)(C)C)ccc2O)c1
inactive: IGROV-1 2.15 µM | SK-MEL-2 1.81 µM | K562 2.73 µM | OVCAR-5 1.82 µM | TK-10 2.53 µM | SF-539 1.89 µM | UACC-62 1.66 µM | RPMI-8226 2.37 µM | NCI-H522 2.11 µM | SR 2.4 µM | HL-60 2.23 µM | SK-OV-3 2.11 µM | PC-3 1.85 µM | MDA-MB-435 1.78 µM | SF-295 1.98 µM | HOP-62 1.85 µM | MOLT-4 2.07 µM | SNB-75 2.05 µM | OVCAR-3 1.79 µM

COC(=O)C1(O)c2ccccc2N=C2C(=O)c3ccccc3N21 (stereo unspecified) [METHYLISATOID]
inactive: IGROV-1 > 100 µM | SK-MEL-2 > 100 µM | K562 > 100 µM | OVCAR-5 > 100 µM | TK-10 > 100 µM | SF-539 > 100 µM | RPMI-8226 > 100 µM | NCI-H522 > 100 µM | SK-MEL-5 49.8 µM | SR > 100 µM | HL-60 > 100 µM | PC-3 36.6 µM | MDA-MB-435 12.2 µM | SF-295 > 100 µM | HOP-62 > 100 µM | MOLT-4 > 100 µM | SNB-75 > 100 µM | OVCAR-3 45.3 µM

COc1ccc(C(=O)N2CCN(c3ccc4c(c3)OCC(=O)N4)CC2)cc1
inactive: IGROV-1 > 100 µM | SK-MEL-2 > 100 µM | OVCAR-5 > 100 µM | TK-10 > 100 µM | SF-539 > 100 µM | UACC-62 > 100 µM | RPMI-8226 > 100 µM | NCI-H522 95.9 µM | SK-MEL-5 > 100 µM | SR 67.3 µM | HL-60 64.6 µM | SK-OV-3 > 100 µM | PC-3 > 100 µM | MDA-MB-435 > 100 µM | SF-295 > 100 µM | HOP-62 > 100 µM | MOLT-4 > 100 µM | SNB-75 > 100 µM | OVCAR-3 > 100 µM

CC(=O)NNc1nc(C)c(C(/C=C/c2ccccc2O)=N/NC(=O)c2ccncc2)s1
inactive: IGROV-1 > 100 µM | SK-MEL-2 > 100 µM | OVCAR-5 > 100 µM | TK-10 > 100 µM | SF-539 > 100 µM | UACC-62 > 100 µM | RPMI-8226 > 100 µM | NCI-H522 > 100 µM | SK-MEL-5 > 100 µM | SR > 100 µM | HL-60 > 100 µM | SK-OV-3 > 100 µM | PC-3 > 100 µM | MDA-MB-435 > 100 µM | SF-295 > 100 µM | HOP-62 > 100 µM | MOLT-4 > 100 µM | SNB-75 > 100 µM | OVCAR-3 > 100 µM

O=c1[nH]nc(-c2ccccc2)n1/N=C/c1cccnc1
inactive: IGROV-1 > 100 µM | K562 40.5 µM | OVCAR-5 92.5 µM | TK-10 > 100 µM | SF-539 40.4 µM | RPMI-8226 74 µM | NCI-H522 61.8 µM | SK-MEL-5 57 µM | SR 52.7 µM | HL-60 50.2 µM | PC-3 52.2 µM | MDA-MB-435 64.7 µM | SF-295 > 100 µM | HOP-62 > 100 µM | MOLT-4 64 µM | SNB-75 50.6 µM | OVCAR-3 > 100 µM

CC(=O)OC1CCC2C3CCc4c(C)ccc(OS(=O)(=O)c5ccccc5)c4C3CCC12C (stereo unspecified)
inactive: IGROV-1 38.7 µM | SK-MEL-2 30.8 µM | K562 5.69 µM | OVCAR-5 86.1 µM | TK-10 52.1 µM | UACC-62 26.2 µM | RPMI-8226 21.7 µM | NCI-H522 27.2 µM | SK-MEL-5 3.74 µM | SR 6.82 µM | HL-60 3.84 µM | SK-OV-3 34.2 µM | PC-3 5.57 µM | MDA-MB-435 41.7 µM | SF-295 25.5 µM | HOP-62 26.4 µM | MOLT-4 6.32 µM | OVCAR-3 7.33 µM

C/C(=C1/N=C(c2ccccc2)OC1=O)c1ccc(C)cc1
inactive: IGROV-1 > 100 µM | SK-MEL-2 > 100 µM | K562 > 100 µM | OVCAR-5 > 100 µM | TK-10 > 100 µM | SF-539 > 100 µM | UACC-62 > 100 µM | RPMI-8226 74.1 µM | NCI-H522 > 100 µM | SK-MEL-5 > 100 µM | SR > 100 µM | HL-60 45.3 µM | SK-OV-3 > 100 µM | PC-3 > 100 µM | MDA-MB-435 > 100 µM | SF-295 > 100 µM | HOP-62 > 100 µM | MOLT-4 > 100 µM | OVCAR-3 > 100 µM

C=C1CC=CC(C)(C)C1C/C=C(\C)C(O)CBr (stereo unspecified)
inactive: IGROV-1 19.7 µM | SK-MEL-2 > 100 µM | K562 67.8 µM | OVCAR-5 > 100 µM | TK-10 89.9 µM | SF-539 29.9 µM | UACC-62 53.7 µM | RPMI-8226 25.4 µM | NCI-H522 4.2 µM | SK-MEL-5 62.8 µM | SR 28 µM | HL-60 32.4 µM | SK-OV-3 > 100 µM | PC-3 47.6 µM | MDA-MB-435 39.9 µM | SF-295 > 100 µM | HOP-62 > 100 µM | MOLT-4 21.9 µM

COc1cc(S(=O)(=O)N/N=C/C=C/c2ccccc2)c(OC)cc1NC(C)=O
inactive: IGROV-1 17.8 µM | SK-MEL-2 47 µM | OVCAR-5 38.6 µM | SF-539 5.26 µM | UACC-62 86.9 µM | RPMI-8226 19.1 µM | NCI-H522 25.2 µM | SK-MEL-5 3.73 µM | SR 12.3 µM | HL-60 33 µM | SK-OV-3 > 100 µM | PC-3 77.8 µM | MDA-MB-435 38.8 µM | SF-295 > 100 µM | HOP-62 > 100 µM | SNB-75 > 100 µM | OVCAR-3 40.7 µM

O=C(O)c1c(O)c2cc(Br)ccc2oc1=O
inactive: IGROV-1 > 100 µM | SK-MEL-2 > 100 µM | K562 > 100 µM | OVCAR-5 > 100 µM | TK-10 > 100 µM | SF-539 > 100 µM | UACC-62 > 100 µM | RPMI-8226 > 100 µM | NCI-H522 > 100 µM | SK-MEL-5 > 100 µM | SR > 100 µM | HL-60 > 100 µM | PC-3 > 100 µM | MDA-MB-435 > 100 µM | SF-295 > 100 µM | HOP-62 > 100 µM | MOLT-4 > 100 µM | SNB-75 > 100 µM | OVCAR-3 > 100 µM
